Reference: publication PMC5358098 (ACS chemical neuroscience, 2016)
“And” between values parts separate entries of the source, which are not always exact repeats. Equal values may be shown once. Read-outs that look alike come from different tables or passages of the source.

Key:
CB1R [1] = assay type: cell-based
CB1R [2] = target: T1, CB1R (Homo sapiens, UniProt P21554); assay: cell-based; assay type: cell-based
CB1R [3] = target: T2, CB1R (Mus musculus, UniProt P47746); assay: Operational model bias analysis, STHdh^Q7/Q7 cells; settings: for BF β-arrestin1/pERK1/2 / BF β-arrestin1/pPLCβ3: STHdh^Q7/Q7
T2 sequence (P47746 whole entry): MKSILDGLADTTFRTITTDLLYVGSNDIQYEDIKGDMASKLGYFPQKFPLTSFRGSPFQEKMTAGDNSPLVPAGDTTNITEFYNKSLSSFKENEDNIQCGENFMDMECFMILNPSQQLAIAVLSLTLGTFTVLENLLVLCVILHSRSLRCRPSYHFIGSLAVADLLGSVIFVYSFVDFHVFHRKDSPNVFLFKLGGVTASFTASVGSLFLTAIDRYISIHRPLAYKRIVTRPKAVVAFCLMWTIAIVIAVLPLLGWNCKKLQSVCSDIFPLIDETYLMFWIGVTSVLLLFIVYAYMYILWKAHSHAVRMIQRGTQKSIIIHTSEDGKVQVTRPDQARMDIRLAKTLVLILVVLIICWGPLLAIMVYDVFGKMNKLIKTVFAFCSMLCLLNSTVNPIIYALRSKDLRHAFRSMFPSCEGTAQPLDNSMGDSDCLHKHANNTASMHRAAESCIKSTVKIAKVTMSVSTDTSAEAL

CB1R [4] = target: T2, CB1R; assay type: cell-based
CB1R [5] = target: T1, CB1R; assay type: cell-based; settings: HEK293A, 10 min
CB1R [6] = target: T2, CB1R; assay: Operational model bias analysis, Neuro2a cells; assay type: cell-based; settings: for ΔΔlog R β-arrestin1/pPLCβ3: reference 2-AG + GAT100
hCB1R = assay: Operational model bias analysis, HEK293A cells; assay type: cell-based, human; settings: for ΔΔlog R β-arrestin1/cAMP / ΔΔlog R β-arrestin1/pPLCβ3: reference 2-AG + GAT100
CB1R [7] = target: T1, CB1R; assay: cell-based; assay type: cell-based; remark: listed apart in the source
CB1R [8] = target: T1, CB1R; assay type: cell-based; settings: HEK293A, 30 min
CB1R [9] = assay type: cell-based; remark: listed apart in the source
CB1R [10] = settings: cited from earlier work
CB1R [11] = system: CB1R
CB1R [12] = target: T1, CB1R; assay type: cell-based; settings: Neuro2a, 30 min
CB1R [13] = target: T1, CB1R; assay: cell-based
CB1R [14] = target: T1, CB1R; assay: [3H]SR141716A equilibrium binding, hCB1R CHO cell membranes
CB1R [15] = target: T2, CB1R; assay type: cell-based; settings: Neuro2a, 10 min
CB1R [16] = target: T2, CB1R
CB1R [17] = target: T2, CB1R; assay: cell-based; settings: IC50, PLCβ3 phosphorylation, CP55,940
CB1R [18] = target: T2, CB1R; assay type: cell-based; remark: listed apart in the source
[19] = 500 nM 2-AG + 1 nM-10 μM allosteric modulator
[20] = 500 nM AEA + 1 nM-10 μM allosteric modulator
[21] = 500 nM CP55,940 + 1 nM-10 μM allosteric modulator
[22] = HEK293A, 500 nM 2-AG + 1 nM-10 μM allosteric modulator
[23] = HEK293A, 500 nM AEA + 1 nM-10 μM allosteric modulator
[24] = HEK293A, 500 nM CP55,940 + 1 nM-10 μM allosteric modulator

T1 sequence (P21554 whole entry): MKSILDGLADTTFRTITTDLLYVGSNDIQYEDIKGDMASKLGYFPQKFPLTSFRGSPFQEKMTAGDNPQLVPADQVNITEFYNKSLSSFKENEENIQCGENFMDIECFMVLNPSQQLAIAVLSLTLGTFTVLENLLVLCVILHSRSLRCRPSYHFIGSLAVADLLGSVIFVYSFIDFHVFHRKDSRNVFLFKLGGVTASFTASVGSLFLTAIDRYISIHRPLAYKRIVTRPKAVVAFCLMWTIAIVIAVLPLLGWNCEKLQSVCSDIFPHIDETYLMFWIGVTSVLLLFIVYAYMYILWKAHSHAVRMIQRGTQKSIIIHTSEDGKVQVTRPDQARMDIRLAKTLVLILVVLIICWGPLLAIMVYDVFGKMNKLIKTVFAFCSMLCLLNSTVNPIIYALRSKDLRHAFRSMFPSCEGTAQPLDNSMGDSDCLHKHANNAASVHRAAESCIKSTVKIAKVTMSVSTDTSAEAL

Compound: CCc1c(C(=O)NCCc2ccc(N3CCCCC3)cc2)[nH]c2ccc(Cl)cc12 [Org27569, 5-chloro-3-ethyl-N-(4-(piperidin-1-yl)phenethyl)-1H-indole-2-carboxamide]
- Emax, ERK (pathway ligand bias summary) (CB1R [1]; mean of data for the pathway (Table 3), all cells and orthosteric ligands): 0.45 ± 0.01
- Emax, cAMP (pathway ligand bias summary) (CB1R [2]): 0.31 ± 0.04 ^†
- effect on cAMP levels in the absence of orthosteric agonists (inverse agonism) (CB1R [2]; HEK-CRE, 10 μM forskolin + 1 nM to 10 μM compound alone, 4 h): increased cAMP levels significantly
- IC50 (CB1R [2]; IC50, cAMP, CP55,940): 969 nM
- Emax (CB1R [2]; read-out: Emax (% cAMP inhibition), CP55,940): 25.7 ± 1.64%
- BF β-arrestin1/pERK1/2 (CB1R [3]; [19]): 0.5
- BF β-arrestin1/pPLCβ3 (CB1R [3]; [19]): 0.3
- BF β-arrestin1/pERK1/2 (CB1R [3]; [20]): 1.3
- BF β-arrestin1/pPLCβ3 (CB1R [3]; [20]): 0.2
- BF β-arrestin1/pERK1/2 (CB1R [3]; [21]): 0.3
- BF β-arrestin1/pPLCβ3 (CB1R [3]; [21]): 0.8
- Emax pERK1/2/Total ERK1/2, 2-AG (CB1R [4]; Neuro2a, 1 nM-10 μM 2-AG + 1 μM NAM, 10 min): 0.48 ± 0.03
- Emax pERK1/2/Total ERK1/2, AEA (CB1R [4]; Neuro2a, 1 nM-10 μM AEA + 1 μM NAM, 10 min): 0.44 ± 0.02
- Emax pERK1/2/Total ERK1/2, CP55,940 (CB1R [4]; Neuro2a, 1 nM-10 μM CP55,940 + 1 μM NAM, 10 min): 0.43 ± 0.02
- Emax pERK1/2/Total ERK1/2, 2-AG (CB1R [5]; 1 nM-10 μM 2-AG + 1 μM NAM): 0.46 ± 0.02
- Emax pERK1/2/Total ERK1/2, AEA (CB1R [5]; 1 nM-10 μM AEA + 1 μM NAM): 0.42 ± 0.02
- Emax pERK1/2/Total ERK1/2, CP55,940 (CB1R [5]; 1 nM-10 μM CP55,940 + 1 μM NAM): 0.40 ± 0.01
- BF β-arrestin1/pERK1/2 (CB1R [6]; [19]): 3.2
- BF β-arrestin1/pPLCβ3 (CB1R [6]; [19]): 0.6
- ΔΔlog R β-arrestin1/pPLCβ3 (CB1R [6]; [19]): –0.2 ± 0.2
- BF β-arrestin1/pERK1/2 (CB1R [6]; [20]): 1.6
- BF β-arrestin1/pPLCβ3 (CB1R [6]; [20]): 4.0
- ΔΔlog R β-arrestin1/pPLCβ3 (CB1R [6]; [20]): 0.6 ± 0.2
- BF β-arrestin1/pERK1/2 (CB1R [6]; [21]): 3.2
- BF β-arrestin1/pPLCβ3 (CB1R [6]; [21]): 4.0
- ΔΔlog R β-arrestin1/pPLCβ3 (CB1R [6]; [21]): 0.6 ± 0.4
- BF β-arrestin1/cAMP (hCB1R; [22]): 0.2
- BF β-arrestin1/pERK1/2 (hCB1R; [22]): 0.1
- BF β-arrestin1/pPLCβ3 (hCB1R; [22]): 0.1
- ΔΔlog R β-arrestin1/cAMP (hCB1R; [22]): –0.6 ± 0.8
- ΔΔlog R β-arrestin1/pPLCβ3 (hCB1R; [22]): –1.0 ± 0.9
- BF β-arrestin1/cAMP (hCB1R; [23]): 0.1
- BF β-arrestin1/pERK1/2 (hCB1R; [23]): 15.8
- BF β-arrestin1/pPLCβ3 (hCB1R; [23]): 0.03
- ΔΔlog R β-arrestin1/cAMP (hCB1R; [23]): –1.2 ± 0.6
- ΔΔlog R β-arrestin1/pPLCβ3 (hCB1R; [23]): –1.6 ± 0.6
- BF β-arrestin1/cAMP (hCB1R; [24]): 1.0
- BF β-arrestin1/pERK1/2 (hCB1R; [24]): 4.0
- BF β-arrestin1/pPLCβ3 (hCB1R; [24]): 0.5
- ΔΔlog R β-arrestin1/cAMP (hCB1R; [24]): 0.0 ± 0.6
- ΔΔlog R β-arrestin1/pPLCβ3 (hCB1R; [24]): –0.3 ± 0.1
- Emax pPLCβ3/Total PLCβ3, 2-AG (CB1R [7]; HEK293A, 1 nM-10 μM 2-AG + 1 μM NAM, 10 min): 0.52 ± 0.02
- Emax pPLCβ3/Total PLCβ3, AEA (CB1R [7]; HEK293A, 1 nM-10 μM AEA + 1 μM NAM, 10 min): 0.49 ± 0.02
- Emax pPLCβ3/Total PLCβ3, CP55,940 (CB1R [7]; HEK293A, 1 nM-10 μM CP55,940 + 1 μM NAM, 10 min): 0.60 ± 0.03
- IC50 (CB1R [7]; IC50, PLCβ3 phosphorylation, CP55,940): 151 nM
- Emax (BRETEff), 2-AG (CB1R [8]; 1 nM-10 μM 2-AG + 1 μM NAM): 0.49 ± 0.03
- Emax (BRETEff), AEA (CB1R [8]; 1 nM-10 μM AEA + 1 μM NAM): 0.49 ± 0.02
- Emax (BRETEff), CP55,940 (CB1R [8]; 1 nM-10 μM CP55,940 + 1 μM NAM): 0.58 ± 0.03
- Emax, PLCβ3 (pathway ligand bias summary) (CB1R [9]; mean of data for the pathway (Table 2), all cells and orthosteric ligands): 0.55 ± 0.01
- effect on CP55,940 equilibrium binding by CB1R (CB1R [10]): increase CP55,940 equilibrium binding
- Emax, 2-AG (probe dependence summary) (CB1R [11]; mean of data for 2-AG (Tables 1-4)): 0.49 ± 0.02
- Emax, AEA (probe dependence summary) (CB1R [11]; mean of data for AEA (Tables 1-4)): 0.45 ± 0.03
- Emax, CP55,940 (probe dependence summary) (CB1R [11]; mean of data for CP55,940 (Tables 1-4)): 0.50 ± 0.04
- Emax, HEK293A (cell dependence summary) (CB1R [11]; mean of data for HEK293A (Tables 1-3)): 0.49 ± 0.02
- Emax, Neuro2a (cell dependence summary) (CB1R [11]; mean of data for Neuro2a (Tables 1-3)): 0.50 ± 0.02
- Emax, STHdh^Q7/Q7 (cell dependence summary) (CB1R [11]; mean of data for STHdh^Q7/Q7 (Tables 1-3)): 0.51 ± 0.02
- Emax (BRETEff), 2-AG (CB1R [12]; 1 nM-10 μM 2-AG + 1 μM NAM): 0.47 ± 0.03
- Emax (BRETEff), AEA (CB1R [12]; 1 nM-10 μM AEA + 1 μM NAM): 0.44 ± 0.02
- Emax (BRETEff), CP55,940 (CB1R [12]; 1 nM-10 μM CP55,940 + 1 μM NAM): 0.60 ± 0.05
- IC50 (CB1R [13]): 236 nM
- Emax, β-arrestin1 (pathway ligand bias summary) (CB1R [13]; mean of data for the pathway (Table 1), all cells and orthosteric ligands): 0.50 ± 0.02
- EC50 (CB1R [14]): 2520 nM
- Emax (CB1R [14]; read-out: Emax, [3H]SR141716A binding): -17.6%
- Emax pPLCβ3/Total PLCβ3, 2-AG (CB1R [15]; 1 nM-10 μM 2-AG + 1 μM NAM): 0.53 ± 0.02
- Emax pPLCβ3/Total PLCβ3, AEA (CB1R [15]; 1 nM-10 μM AEA + 1 μM NAM): 0.52 ± 0.02 ^††
- Emax pPLCβ3/Total PLCβ3, CP55,940 (CB1R [15]; 1 nM-10 μM CP55,940 + 1 μM NAM): 0.58 ± 0.02 ^††
- effect on CP55,940-induced CB1R internalization (fraction of CB1R at the plasma membrane) (CB1R [16]; STHdh^Q7/Q7, 1 μM + 500 nM CP55,940): reversed this effect
